Consider eleven molecules from ChEMBL document CHEMBL4346721, “Small molecule PROTACs in targeted therapy: An emerging strategy to induce protein degradation” (Eur J Med Chem, 2019).

Test [1] addresses T1, von Hippel-Lindau disease tumor suppressor/Mitogen-activated protein kinase 14 (Homo sapiens, UniProt Q16539+P40337). In words: Protac activity at E3 ubiquitin ligase/p38alpha (unknown origin) assessed as p38alpha degradation by cell based assay relative to control.
For test [2], the target named is T1, von Hippel-Lindau disease tumor suppressor/Mitogen-activated protein kinase 14. Kind of test: Protac activity at E3 ubiquitin ligase/p38alpha (unknown origin) assessed as p38alpha degradation by cell based assay.
For test [3], the target named is T2, von Hippel-Lindau disease tumor suppressor/Bromodomain-containing protein 2 (Homo sapiens, UniProt P25440+P40337). Kind of test: Protac activity against VHL/BRD2 in human 22Rvl cells assessed as induction of BRD2 protein degradation by reverse phase protein array analysis. Format: cell-based.
T2 sequence (P25440 whole entry): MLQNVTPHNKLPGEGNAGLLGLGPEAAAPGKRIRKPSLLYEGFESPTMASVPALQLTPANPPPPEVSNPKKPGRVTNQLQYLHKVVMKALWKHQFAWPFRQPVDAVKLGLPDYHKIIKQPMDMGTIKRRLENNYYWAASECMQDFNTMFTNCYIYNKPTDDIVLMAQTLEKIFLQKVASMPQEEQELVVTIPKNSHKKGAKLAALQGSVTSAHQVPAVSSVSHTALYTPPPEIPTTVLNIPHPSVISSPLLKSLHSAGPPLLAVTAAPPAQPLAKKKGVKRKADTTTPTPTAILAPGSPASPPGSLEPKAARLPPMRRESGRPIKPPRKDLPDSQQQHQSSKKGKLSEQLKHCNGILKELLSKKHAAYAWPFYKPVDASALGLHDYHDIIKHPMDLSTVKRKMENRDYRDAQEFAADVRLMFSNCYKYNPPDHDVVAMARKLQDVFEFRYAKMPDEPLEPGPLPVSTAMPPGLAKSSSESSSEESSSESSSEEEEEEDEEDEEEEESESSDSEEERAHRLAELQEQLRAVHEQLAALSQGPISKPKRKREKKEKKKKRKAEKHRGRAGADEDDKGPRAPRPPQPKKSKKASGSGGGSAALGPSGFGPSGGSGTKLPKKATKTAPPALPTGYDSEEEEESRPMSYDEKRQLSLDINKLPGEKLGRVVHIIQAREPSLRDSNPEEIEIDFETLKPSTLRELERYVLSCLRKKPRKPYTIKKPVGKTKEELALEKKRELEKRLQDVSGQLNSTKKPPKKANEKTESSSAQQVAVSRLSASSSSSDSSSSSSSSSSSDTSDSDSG
T2 sequence (P40337 whole entry): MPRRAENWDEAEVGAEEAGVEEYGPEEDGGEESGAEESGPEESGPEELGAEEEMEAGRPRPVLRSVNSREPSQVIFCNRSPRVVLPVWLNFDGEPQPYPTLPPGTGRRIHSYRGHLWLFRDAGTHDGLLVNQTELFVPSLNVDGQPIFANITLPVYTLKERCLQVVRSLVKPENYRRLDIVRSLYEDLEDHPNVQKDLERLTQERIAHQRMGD
Test [4] deals with von Hippel-Lindau disease tumor suppressor/Myc proto-oncogene protein (Homo sapiens, UniProt P01106+P40337). In words: Protac activity against VHL/c-Myc (unknown origin) assessed as induction of c-Myc protein degradation by cell based reverse phase protein array analysis.
Test [5] deals with T3, von Hippel-Lindau disease tumor suppressor/Mitogen-activated protein kinase 13 (Homo sapiens, UniProt O15264+P40337). Kind of test: Protac activity at E3 ubiquitin ligase/p38delta (unknown origin) assessed as p38delta degradation by cell based assay relative to control.
Test [6] deals with T3, von Hippel-Lindau disease tumor suppressor/Mitogen-activated protein kinase 13. In words: Protac activity at E3 ubiquitin ligase/p38delta (unknown origin) assessed as p38delta degradation by cell based assay.
The target in test [7] is Protein cereblon/Cyclin-dependent kinase 9 (Homo sapiens, UniProt P50750+Q96SW2). Kind of test: Protac activity against E3 ubiquitin ligase/CDK9 in human MCF7 cells assessed as induction of CDK9 protein degradation. Format: cell-based.
Test [8] concerns the target Protein cereblon/Tyrosine-protein kinase BTK (Homo sapiens, UniProt Q06187+Q96SW2). In words: Protac activity at E3 ubiquitin ligase/BTK in human NAMALWA cells assessed as BTK degradation. Format: cell-based.
The target of test [9] is Protein cereblon/Histone acetyltransferase KAT2B (Homo sapiens, UniProt Q92831+Q96SW2). In words: Protac activity against E3 ubiquitin ligase/PCAF in human THP-1 cells assessed as induction of PCAF protein degradation. The class given is cell-based.
Protein cereblon/Histone acetyltransferase KAT2B, sequence (Q92831 whole entry): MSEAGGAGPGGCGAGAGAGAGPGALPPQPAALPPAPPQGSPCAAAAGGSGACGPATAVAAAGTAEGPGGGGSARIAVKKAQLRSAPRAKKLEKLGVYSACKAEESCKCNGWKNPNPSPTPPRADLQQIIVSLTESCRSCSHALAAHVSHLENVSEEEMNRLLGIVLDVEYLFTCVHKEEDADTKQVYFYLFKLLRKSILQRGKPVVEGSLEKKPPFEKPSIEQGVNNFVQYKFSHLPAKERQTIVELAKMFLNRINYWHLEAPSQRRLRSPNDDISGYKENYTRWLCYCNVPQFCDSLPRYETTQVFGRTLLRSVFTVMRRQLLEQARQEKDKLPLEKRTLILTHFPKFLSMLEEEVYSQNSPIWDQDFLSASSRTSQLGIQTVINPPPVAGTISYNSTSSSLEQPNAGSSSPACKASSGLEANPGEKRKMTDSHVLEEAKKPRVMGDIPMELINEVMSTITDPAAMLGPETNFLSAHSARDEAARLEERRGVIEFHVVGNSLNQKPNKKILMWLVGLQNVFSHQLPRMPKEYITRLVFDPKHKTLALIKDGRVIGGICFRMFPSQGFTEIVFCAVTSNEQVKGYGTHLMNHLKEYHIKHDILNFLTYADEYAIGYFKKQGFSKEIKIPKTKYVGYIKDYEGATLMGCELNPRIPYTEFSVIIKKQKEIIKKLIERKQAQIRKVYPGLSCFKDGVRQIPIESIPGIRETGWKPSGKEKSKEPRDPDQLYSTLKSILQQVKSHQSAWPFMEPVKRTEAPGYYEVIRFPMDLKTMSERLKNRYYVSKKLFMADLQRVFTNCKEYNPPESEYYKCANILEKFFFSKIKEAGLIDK
Protein cereblon/Histone acetyltransferase KAT2B, sequence (Q96SW2 whole entry): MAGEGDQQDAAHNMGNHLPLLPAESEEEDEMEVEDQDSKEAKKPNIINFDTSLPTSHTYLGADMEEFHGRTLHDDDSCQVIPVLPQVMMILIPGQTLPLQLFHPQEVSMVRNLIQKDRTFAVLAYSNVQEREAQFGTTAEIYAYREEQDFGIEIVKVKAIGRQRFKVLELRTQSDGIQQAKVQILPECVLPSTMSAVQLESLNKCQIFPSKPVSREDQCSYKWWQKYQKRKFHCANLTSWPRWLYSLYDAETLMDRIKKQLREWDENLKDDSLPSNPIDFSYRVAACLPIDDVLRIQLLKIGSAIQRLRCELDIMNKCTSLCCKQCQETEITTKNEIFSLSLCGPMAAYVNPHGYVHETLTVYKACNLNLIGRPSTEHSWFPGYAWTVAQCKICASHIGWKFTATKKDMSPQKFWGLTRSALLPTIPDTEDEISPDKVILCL
The target in test [10] is Protein cereblon/Histone acetyltransferase KAT2A (Homo sapiens, UniProt Q92830+Q96SW2). Kind of test: Protac activity against E3 ubiquitin ligase/GCN5 in human THP-1 cells assessed as induction of GCN5 protein degradation. Format: cell-based.
Protein cereblon/Histone acetyltransferase KAT2A, sequence (Q92830 whole entry): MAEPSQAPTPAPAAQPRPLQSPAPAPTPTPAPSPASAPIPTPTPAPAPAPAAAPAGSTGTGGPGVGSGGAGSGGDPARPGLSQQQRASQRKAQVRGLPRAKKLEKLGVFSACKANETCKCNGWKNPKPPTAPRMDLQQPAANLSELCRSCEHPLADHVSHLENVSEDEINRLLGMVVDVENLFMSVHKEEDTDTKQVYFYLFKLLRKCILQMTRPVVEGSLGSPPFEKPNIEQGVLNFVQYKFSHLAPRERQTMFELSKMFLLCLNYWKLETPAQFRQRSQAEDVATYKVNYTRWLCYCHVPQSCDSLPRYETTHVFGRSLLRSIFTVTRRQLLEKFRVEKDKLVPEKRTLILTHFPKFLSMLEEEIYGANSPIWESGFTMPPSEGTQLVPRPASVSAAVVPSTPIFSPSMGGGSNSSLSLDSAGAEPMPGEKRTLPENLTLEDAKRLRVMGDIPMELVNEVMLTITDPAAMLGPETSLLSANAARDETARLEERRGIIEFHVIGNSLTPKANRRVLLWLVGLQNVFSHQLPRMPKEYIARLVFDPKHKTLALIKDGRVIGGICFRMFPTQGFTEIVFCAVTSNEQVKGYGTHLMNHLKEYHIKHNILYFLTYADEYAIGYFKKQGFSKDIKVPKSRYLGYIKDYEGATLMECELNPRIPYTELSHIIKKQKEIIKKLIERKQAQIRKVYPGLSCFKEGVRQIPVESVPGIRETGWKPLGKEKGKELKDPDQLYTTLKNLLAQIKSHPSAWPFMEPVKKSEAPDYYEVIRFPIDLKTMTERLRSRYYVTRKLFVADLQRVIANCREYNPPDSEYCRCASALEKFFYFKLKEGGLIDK
Protein cereblon/Histone acetyltransferase KAT2A, sequence (Q96SW2 whole entry): as the sequence (Q96SW2 whole entry) above
Test [11] concerns the target T4, von Hippel-Lindau disease tumor suppressor/Androgen receptor (Homo sapiens, UniProt P10275+P40337). Kind of test: Protac activity against VHL/androgen receptor in human VCaP cells assessed as induction of androgen receptor protein degradation by Western blot analysis relative to control. Format: cell-based. (In general: A western blot detects proteins with antibodies after separation by electrophoresis.)

In test [12] the target is T4, von Hippel-Lindau disease tumor suppressor/Androgen receptor. In words: Protac activity against VHL/androgen receptor in human VCaP cells assessed as induction of androgen receptor protein degradation by Western blot analysis. The class given is cell-based.
Test [13] has as its target Protein cereblon/Peptidyl-prolyl cis-trans isomerase FKBP1A (Homo sapiens, UniProt P62942+Q96SW2). Kind of test: Protac activity against CRBN/FKBP12 (unknown origin) assessed as FKBP12 degradation by cell based assay.
For test [14], the target named is von Hippel-Lindau disease tumor suppressor (Homo sapiens, UniProt P40337). Kind of test: Binding affinity to VHL in human THP-1 cells. Format: cell-based.
von Hippel-Lindau disease tumor suppressor, sequence (P40337 whole entry): as the sequence (P40337 whole entry) above
Test [15] has as its target T5, von Hippel-Lindau disease tumor suppressor/Receptor-interacting serine/threonine-protein kinase 2 (Homo sapiens, UniProt O43353+P40337). Kind of test: Protac activity against VHL/RIPK2 in human THP-1 cells assessed as induction of RIPK2 protein degradation at 10 nM relative to control. The class given is cell-based.
Test [16] deals with T5, von Hippel-Lindau disease tumor suppressor/Receptor-interacting serine/threonine-protein kinase 2. In words: Protac activity against VHL/RIPK2 in human THP-1 cells assessed as induction of RIPK2 protein degradation. Format: cell-based.
For test [17], the target named is Estrogen receptor/E3 ubiquitin-protein ligase XIAP (Homo sapiens) (UniProt P03372+P98170). Kind of test: Protac activity against xiap/ERalpha in human MCF7 cells assessed as reduction in ERalpha protein level at 3 nM relative to control. The class given is cell-based. Set-up: scale not given: the % may be the effect or the level left.
Test [18] deals with von Hippel-Lindau disease tumor suppressor/Bromodomain-containing protein 4 (Homo sapiens, UniProt O60885+P40337). In words: Protac activity against VHL/BRD4 (unknown origin) assessed as induction of BRD4 protein degradation by cell based assay.
In test [19] the target is von Hippel-Lindau disease tumor suppressor/Bromodomain-containing protein 3 (Homo sapiens, UniProt Q15059+P40337). Kind of test: Protac activity against VHL/BRD3 (unknown origin) assessed as […] protein degradation by cell based assay.
Test [20] addresses T2, von Hippel-Lindau disease tumor suppressor/Bromodomain-containing protein 2. In words: Protac activity against VHL/BRD2 (unknown origin) assessed as […] protein degradation by cell based assay.

Protein cereblon/Tyrosine-protein kinase BTK, sequence (Q06187 whole entry): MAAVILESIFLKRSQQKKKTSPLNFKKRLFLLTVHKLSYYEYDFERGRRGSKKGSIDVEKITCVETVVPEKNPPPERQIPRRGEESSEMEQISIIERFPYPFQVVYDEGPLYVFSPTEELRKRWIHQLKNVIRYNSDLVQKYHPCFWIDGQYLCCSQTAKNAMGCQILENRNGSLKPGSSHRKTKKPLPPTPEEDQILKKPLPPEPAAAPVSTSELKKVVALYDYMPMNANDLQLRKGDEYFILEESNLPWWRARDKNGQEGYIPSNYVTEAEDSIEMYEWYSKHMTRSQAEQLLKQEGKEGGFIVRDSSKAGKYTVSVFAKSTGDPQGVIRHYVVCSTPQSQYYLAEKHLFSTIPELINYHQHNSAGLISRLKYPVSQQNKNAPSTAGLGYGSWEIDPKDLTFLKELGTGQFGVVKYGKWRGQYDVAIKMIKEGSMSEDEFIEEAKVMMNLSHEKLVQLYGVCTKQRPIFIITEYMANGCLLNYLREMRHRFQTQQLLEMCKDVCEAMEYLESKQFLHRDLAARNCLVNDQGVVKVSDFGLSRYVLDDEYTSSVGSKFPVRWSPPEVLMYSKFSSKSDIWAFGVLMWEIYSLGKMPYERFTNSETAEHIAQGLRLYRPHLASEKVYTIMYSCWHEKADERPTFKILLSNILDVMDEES
Protein cereblon/Tyrosine-protein kinase BTK, sequence (Q96SW2 whole entry): as the sequence (Q96SW2 whole entry) above

The Emax is the greatest response seen or fitted, relative to the assay's reference. In general, DC50 refers to the concentration at which degradation of the target reaches its halfway point. As for `COc1cc2c(Oc3ccc(NC(=O)C4(C(=O)Nc5ccc(F)cc5)CC4)cc3F)ccnc2cc1OCCCCOCCCCOCC(=O)N[C@H](C(=O)N1C[C@H](O)C[C@H]1C(=O)NCc1ccc(-c2scnc2C)cc1)C(C)(C)C`, the Emax in test [1] amounted to 97.4%. Moreover, the DC50 in test [2] was found to be 7.16 nM. Regarding `Cc1ncsc1-c1ccc([C@H](C)NC(=O)[C@@H]2C[C@@H](O)CN2C(=O)[C@@H](NC(=O)COCCCOCCNC(=O)C[C@@H]2N=C(c3ccc(Cl)cc3)c3c(sc(C)c3C)-n3c(C)nnc32)C(C)(C)C)cc1`, the DC50 was less than 5 nM in test [3] and less than 1 nM in test [4]. For `COc1cc2c(Oc3ccc(NC(=O)C4(C(=O)Nc5ccc(F)cc5)CC4)cc3F)ccnc2cc1OCCOCCOCCOc1cc(-c2scnc2C)ccc1CNC(=O)[C@@H]1C[C@@H](O)CN1C(=O)[C@H](C(C)C)N1Cc2ccccc2C1=O`, the Emax in test [5] was found to be 99.4%. Also, in [6], the DC50 is 46.2 nM. The term IC50 denotes the midpoint of a concentration-inhibition curve. For `O=C1CCC(N2C(=O)c3cccc(NC(=O)CCCCCCCn4cc(COc5c(O)cc(O)c6c(=O)cc(-c7ccccc7)oc56)nn4)c3C2=O)C(=O)N1` (stereo not given), the concentration for half-maximal inhibition (IC50) in [7] was determined as 523 nM. On to `Nc1ncnc2c1c(-c1ccc(Oc3ccccc3)cc1)nn2C1CCN(CCOCCOCC(=O)Nc2ccc3c(c2)C(=O)N(C2CCC(=O)NC2=O)C3=O)CC1` (stereo not given), for which the DC50 in test [8] turned out to be 9.1 nM. For `CN1C[C@H](Nc2cnn(C)c(=O)c2Br)C[C@H](c2ccc(C(=O)N(C)CCCN(C)c3ccc(CCCOc4cccc5c4C(=O)N(C4CCC(=O)NC4=O)C5=O)cc3)cc2)C1` (mixture of isomers), the DC50 in [9] is 1.5 nM; in test [10], 3 nM. In the case of `Cc1ncsc1-c1ccc(CNC(=O)[C@@H]2C[C@@H](O)CN2C(=O)[C@@H](NC(=O)COCCCCOc2ccc(-c3ccc(N4C(=S)N(c5ccc(C#N)c(C(F)(F)F)c5)C(=O)C4(C)C)cc3)cc2)C(C)(C)C)cc1`, the Emax in test [11] is more than 95%. Moreover, in test [12], the DC50 was found to be 5 nM. On to `CCC(C)(C)C(=O)C(=O)N1CCCCC1C(=O)O[C@H](CCc1ccc(OC)c(OC)c1)c1cccc(NC(=O)CCC(=O)NCCCCNC(=O)COc2cccc3c2C(=O)N(C2CCC(=O)NC2=O)C3=O)c1` (stereo not given in full), for which, in test [13], the DC50 was determined as 10 nM.

With `Cc1ncsc1-c1ccc(CNC(=O)[C@@H]2C[C@@H](O)CN2C(=O)[C@@H](NC(=O)COCCOCCOCCOCCOc2cc3nccc(Nc4ccc5scnc5c4)c3cc2S(=O)(=O)C(C)(C)C)C(C)(C)C)cc1`, in test [14], the IC50 came to 656 nM. The Emax in test [15] was more than 95%. Moreover, the DC50 in test [16] turned out to be 1.4 nM. Regarding `CC/C(=C(\c1ccc(O)cc1)c1ccc(OCCN(C)C(=O)COCCOCCOCCOc2cccc(C(=O)c3csc([C@@H]4CCCN4C(=O)[C@@H](NC(=O)[C@H](C)NC)C4CCCCC4)n3)c2)cc1)c1ccccc1`, in test [17], the Activity was 50%. For the molecule `Cc1ncsc1-c1ccc(CNC(=O)[C@@H]2[C@@H](F)[C@@H](O)CN2C(=O)[C@@H](NC(=O)COCCOCCOCCNC(=O)C[C@@H]2N=C(c3ccc(Cl)cc3)c3c(sc(C)c3C)-n3c(C)nnc32)C(C)(C)C)cc1`, the DC50 in test [18] was less than 3 nM; in test [19], 10 nM; in [20] it was 10 nM.
